Measurements published in ChEMBL document CHEMBL5338824 (J Med Chem, 2023).
Calls of active or inactive are those of the source. The rule behind the calls is not given here.

Columns and labels:
[1] = Toxicity in SCID mouse xenografted with human MDA-MB-231 cells assessed as body weight loss at 20 mg/kg,ip qd administrated 5 days per week for 4 weeks; format: organism-based; conditions: in vivo, 672 h, time 28 day
[2] = biological target: T1, Protein cereblon/Bromodomain-containing protein 3 (Homo sapiens, UniProt Q15059+Q96SW2); conditions: MV4-11, dose 0.1-1000 nM, time 4.0 hrs
Target sequence in this assay (Q15059 2-726 limits assumed): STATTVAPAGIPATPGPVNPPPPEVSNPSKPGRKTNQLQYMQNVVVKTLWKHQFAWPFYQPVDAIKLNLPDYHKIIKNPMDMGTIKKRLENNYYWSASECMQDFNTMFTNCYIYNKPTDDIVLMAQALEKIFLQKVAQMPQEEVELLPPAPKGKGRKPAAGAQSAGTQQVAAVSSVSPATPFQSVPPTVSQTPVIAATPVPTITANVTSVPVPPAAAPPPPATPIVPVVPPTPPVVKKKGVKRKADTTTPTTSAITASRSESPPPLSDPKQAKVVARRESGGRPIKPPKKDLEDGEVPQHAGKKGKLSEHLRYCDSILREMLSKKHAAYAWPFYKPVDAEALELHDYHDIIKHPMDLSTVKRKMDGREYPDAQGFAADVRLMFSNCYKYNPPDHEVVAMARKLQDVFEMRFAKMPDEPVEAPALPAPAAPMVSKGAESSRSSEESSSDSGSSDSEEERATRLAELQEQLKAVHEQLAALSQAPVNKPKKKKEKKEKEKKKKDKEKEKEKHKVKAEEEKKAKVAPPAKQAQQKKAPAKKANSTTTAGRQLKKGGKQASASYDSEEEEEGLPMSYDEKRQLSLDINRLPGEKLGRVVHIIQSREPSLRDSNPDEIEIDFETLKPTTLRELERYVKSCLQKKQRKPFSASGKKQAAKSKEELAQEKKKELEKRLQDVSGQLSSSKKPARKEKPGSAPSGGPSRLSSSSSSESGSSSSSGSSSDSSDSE
Target sequence in this assay (Q96SW2 whole entry partner): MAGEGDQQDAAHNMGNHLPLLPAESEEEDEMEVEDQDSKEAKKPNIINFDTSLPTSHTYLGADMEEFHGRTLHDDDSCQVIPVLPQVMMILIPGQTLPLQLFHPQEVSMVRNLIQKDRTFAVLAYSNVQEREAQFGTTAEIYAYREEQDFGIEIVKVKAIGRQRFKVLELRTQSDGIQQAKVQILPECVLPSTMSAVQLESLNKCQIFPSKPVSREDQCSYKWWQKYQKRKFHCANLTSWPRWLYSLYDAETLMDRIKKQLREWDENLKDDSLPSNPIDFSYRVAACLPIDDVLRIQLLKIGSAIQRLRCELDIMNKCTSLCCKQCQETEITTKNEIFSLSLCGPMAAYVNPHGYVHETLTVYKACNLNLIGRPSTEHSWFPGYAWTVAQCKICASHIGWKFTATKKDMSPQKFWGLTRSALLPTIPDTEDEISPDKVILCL

[3] = biological target: T1, Protein cereblon/Bromodomain-containing protein 3; conditions: T47D, dose 0.1-1000 nM, time 4.0 hrs
Target sequence in this assay (Q15059 2-726 limits assumed): as the sequence (Q15059 2-726 limits assumed) above
Target sequence in this assay (Q96SW2 whole entry partner): as the sequence (Q96SW2 whole entry partner) above

[4] = biological target: T2, Protein cereblon/Bromodomain-containing protein 2 (Homo sapiens, UniProt P25440+Q96SW2); conditions: MCF7, dose 0.1-1000 nM, time 4.0 hrs
Target sequence in this assay (P25440 whole entry, looked up): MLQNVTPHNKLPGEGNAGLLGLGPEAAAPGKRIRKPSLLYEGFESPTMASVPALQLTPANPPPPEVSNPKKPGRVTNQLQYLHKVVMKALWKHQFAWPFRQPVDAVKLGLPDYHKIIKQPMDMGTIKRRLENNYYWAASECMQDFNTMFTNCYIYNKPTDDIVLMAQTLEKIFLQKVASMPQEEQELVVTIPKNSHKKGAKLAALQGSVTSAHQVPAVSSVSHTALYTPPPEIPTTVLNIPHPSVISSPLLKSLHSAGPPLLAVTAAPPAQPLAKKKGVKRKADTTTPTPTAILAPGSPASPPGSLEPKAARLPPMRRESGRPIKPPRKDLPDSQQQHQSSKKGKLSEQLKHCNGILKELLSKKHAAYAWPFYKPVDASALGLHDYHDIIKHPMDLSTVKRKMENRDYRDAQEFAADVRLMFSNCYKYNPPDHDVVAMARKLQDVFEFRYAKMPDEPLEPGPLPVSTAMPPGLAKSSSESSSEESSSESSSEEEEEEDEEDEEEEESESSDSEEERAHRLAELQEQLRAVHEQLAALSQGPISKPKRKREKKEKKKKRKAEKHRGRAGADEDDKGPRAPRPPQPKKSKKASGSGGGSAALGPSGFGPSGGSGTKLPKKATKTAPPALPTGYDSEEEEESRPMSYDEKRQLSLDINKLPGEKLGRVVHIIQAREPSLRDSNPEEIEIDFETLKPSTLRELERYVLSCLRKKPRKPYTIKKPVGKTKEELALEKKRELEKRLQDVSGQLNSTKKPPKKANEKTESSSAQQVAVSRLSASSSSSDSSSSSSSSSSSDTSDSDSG
Target sequence in this assay (Q96SW2 whole entry, looked up): as the sequence (Q96SW2 whole entry partner) above

[5] = biological target: T2, Protein cereblon/Bromodomain-containing protein 2; conditions: RS4-11, dose 0.1-1000 nM, time 4.0 hrs
Target sequence in this assay (P25440 whole entry, looked up): as the sequence (P25440 whole entry, looked up) above
Target sequence in this assay (Q96SW2 whole entry, looked up): as the sequence (Q96SW2 whole entry partner) above

[6] = tested on: T47D; assay: Antiproliferative activity against human T47D cells assessed as cell growth inhibition incubated for 4 days by WST-8 assay; format: functional, cell-based; conditions: 96 h
[7] = tested on: MDA-MB-453; assay: Antiproliferative activity against human MDA-MB-453 cells assessed as cell growth inhibition incubated for 4 days by WST-8 assay; format: functional, cell-based; conditions: MDA-MB-453, 96 h
[8] = tested on: MV4-11; assay: Antitumor activity against human MV4-11 cells xenografted in SCID mouse assessed as decrease in tumor growth at 20 mg/kg,ip qd administrated and measured after 48 hrs; format: functional, organism-based
[9] = tested on: MV4-11; assay: Antiproliferative activity against human MV4-11 cells assessed as cell growth inhibition incubated for 4 days by WST-8 assay; format: functional, cell-based; conditions: MV4-11, 96 h
[10] = tested on: HL-60; assay: Antiproliferative activity against human HL-60 cells assessed as cell growth inhibition incubated for 4 days by WST-8 assay; format: functional, cell-based; conditions: HL-60, 96 h
[11] = biological target: T2, Protein cereblon/Bromodomain-containing protein 2; conditions: MOLM-13, dose 0.1-1000 nM, time 4.0 hrs
Target sequence in this assay (P25440 whole entry, looked up): as the sequence (P25440 whole entry, looked up) above
Target sequence in this assay (Q96SW2 whole entry, looked up): as the sequence (Q96SW2 whole entry partner) above

[12] = tested on: MDA-MB-231; assay: Antiproliferative activity against human MDA-MB-231 cells assessed as cell growth inhibition incubated for 4 days by WST-8 assay; format: functional, cell-based; conditions: MDA-MB-231, 96 h
[13] = biological target: T2, Protein cereblon/Bromodomain-containing protein 2; conditions: HL-60, dose 0.1-1000 nM, time 4.0 hrs
Target sequence in this assay (P25440 whole entry, looked up): as the sequence (P25440 whole entry, looked up) above
Target sequence in this assay (Q96SW2 whole entry, looked up): as the sequence (Q96SW2 whole entry partner) above

[14] = Toxicity in SCID mouse xenografted with human MV4-11 cells assessed as body weight loss at 20 mg/kg,ip qd administrated 5 days per week for 4 weeks; format: organism-based; conditions: in vivo, 672 h, time 28 day
[15] = tested on: MCF7; assay: Antiproliferative activity against human MCF7 cells assessed as cell growth inhibition incubated for 4 days by WST-8 assay; format: functional, cell-based; conditions: MCF7, 96 h
[16] = biological target: T2, Protein cereblon/Bromodomain-containing protein 2; conditions: MDA-MB-231, dose 0.1-1000 nM, time 4.0 hrs
Target sequence in this assay (P25440 whole entry, looked up): as the sequence (P25440 whole entry, looked up) above
Target sequence in this assay (Q96SW2 whole entry, looked up): as the sequence (Q96SW2 whole entry partner) above

[17] = biological target: T1, Protein cereblon/Bromodomain-containing protein 3; conditions: HL-60, dose 0.1-1000 nM, time 4.0 hrs
Target sequence in this assay (Q15059 2-726 limits assumed): as the sequence (Q15059 2-726 limits assumed) above
Target sequence in this assay (Q96SW2 whole entry partner): as the sequence (Q96SW2 whole entry partner) above

[18] = biological target: T1, Protein cereblon/Bromodomain-containing protein 3; conditions: MCF7, dose 0.1-1000 nM, time 4.0 hrs
Target sequence in this assay (Q15059 2-726 limits assumed): as the sequence (Q15059 2-726 limits assumed) above
Target sequence in this assay (Q96SW2 whole entry partner): as the sequence (Q96SW2 whole entry partner) above

[19] = biological target: T1, Protein cereblon/Bromodomain-containing protein 3; conditions: RS4-11, dose 0.1-1000 nM, time 4.0 hrs
Target sequence in this assay (Q15059 2-726 limits assumed): as the sequence (Q15059 2-726 limits assumed) above
Target sequence in this assay (Q96SW2 whole entry partner): as the sequence (Q96SW2 whole entry partner) above

[20] = biological target: T1, Protein cereblon/Bromodomain-containing protein 3; conditions: MDA-MB-453, dose 0.1-1000 nM, time 4.0 hrs
Target sequence in this assay (Q15059 2-726 limits assumed): as the sequence (Q15059 2-726 limits assumed) above
Target sequence in this assay (Q96SW2 whole entry partner): as the sequence (Q96SW2 whole entry partner) above

[21] = Toxicity in SCID mouse xenografted with human MV4-11 cells assessed as toxic signs at 20 mg/kg,ip qd administrated 5 days per week for 4 weeks; format: organism-based; conditions: in vivo, 672 h, time 28 day
[22] = tested on: MV4-11; assay: Antitumor activity against human MV4-11 cells xenografted in SCID mouse assessed as inhibition of tumor growth at 20 mg/kg,ip qd administrated and measured after 1 week; format: functional; conditions: MV4-11, 168 h, time 1 weeks
[23] = Toxicity in SCID mouse xenografted with human MDA-MB-231 cells assessed as toxic signs at 20 mg/kg,ip qd administrated 5 days per week for 4 weeks; format: organism-based; conditions: in vivo, 672 h, time 28 day
[24] = biological target: T1, Protein cereblon/Bromodomain-containing protein 3; conditions: MDA-MB-231, dose 0.1-1000 nM, time 4.0 hrs
[25] = tested on: MOLM-13; assay: Antiproliferative activity against human MOLM-13 cells assessed as cell growth inhibition incubated for 4 days by WST-8 assay; format: functional, cell-based; conditions: MOLM-13, 96 h
[26] = biological target: T2, Protein cereblon/Bromodomain-containing protein 2; conditions: MV4-11, dose 0.1-1000 nM, time 4.0 hrs
Target sequence in this assay (P25440 whole entry, looked up): as the sequence (P25440 whole entry, looked up) above
Target sequence in this assay (Q96SW2 whole entry, looked up): as the sequence (Q96SW2 whole entry partner) above

[27] = biological target: T2, Protein cereblon/Bromodomain-containing protein 2; conditions: MDA-MB-453, dose 0.1-1000 nM, time 4.0 hrs
[28] = tested on: RS4-11; assay: Antiproliferative activity against human RS4-11 cells assessed as cell growth inhibition incubated for 4 days by WST-8 assay; format: functional, cell-based; conditions: RS4-11, 96 h
[29] = biological target: T1, Protein cereblon/Bromodomain-containing protein 3; conditions: MOLM-13, dose 0.1-1000 nM, time 4.0 hrs
[30] = biological target: T2, Protein cereblon/Bromodomain-containing protein 2; conditions: T47D, dose 0.1-1000 nM, time 4.0 hrs
[31] = biological target: T1, Protein cereblon/Bromodomain-containing protein 3; assay: PROTAC activity at CRBN/BRD3 in human MV4-11 cells assessed as degradation of BRD3 protein level incubated for 4 hrs by Western blotting assay; format: cell-based
Target sequence in this assay (Q15059 whole entry): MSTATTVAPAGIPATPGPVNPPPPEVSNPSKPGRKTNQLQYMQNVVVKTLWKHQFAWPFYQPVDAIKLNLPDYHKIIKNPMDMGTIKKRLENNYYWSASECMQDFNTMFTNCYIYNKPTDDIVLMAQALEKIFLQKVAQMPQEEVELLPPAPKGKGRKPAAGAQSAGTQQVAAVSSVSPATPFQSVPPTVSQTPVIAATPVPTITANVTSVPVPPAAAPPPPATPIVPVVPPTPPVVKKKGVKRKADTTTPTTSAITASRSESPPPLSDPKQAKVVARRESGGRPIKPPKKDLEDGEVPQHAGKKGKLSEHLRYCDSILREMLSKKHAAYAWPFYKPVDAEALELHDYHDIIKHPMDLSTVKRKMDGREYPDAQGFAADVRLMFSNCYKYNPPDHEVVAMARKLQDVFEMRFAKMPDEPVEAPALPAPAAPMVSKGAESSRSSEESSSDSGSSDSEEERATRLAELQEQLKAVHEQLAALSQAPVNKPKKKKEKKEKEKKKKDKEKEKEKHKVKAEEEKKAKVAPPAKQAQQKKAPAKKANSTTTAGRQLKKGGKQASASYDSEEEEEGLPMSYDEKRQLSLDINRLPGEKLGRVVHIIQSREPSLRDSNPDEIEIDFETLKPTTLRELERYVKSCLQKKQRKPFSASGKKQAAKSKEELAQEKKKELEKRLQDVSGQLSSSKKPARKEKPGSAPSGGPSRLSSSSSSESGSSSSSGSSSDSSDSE
Target sequence in this assay (Q96SW2 whole entry): as the sequence (Q96SW2 whole entry partner) above

[32] = biological target: T2, Protein cereblon/Bromodomain-containing protein 2; assay: PROTAC activity at CRBN/BRD2 in human MV4-11 cells assessed as degradation of BRD2 protein level incubated for 4 hrs by Western blotting assay; format: cell-based
Target sequence in this assay (P25440 whole entry): as the sequence (P25440 whole entry, looked up) above
Target sequence in this assay (Q96SW2 whole entry): as the sequence (Q96SW2 whole entry partner) above

[33] = biological target: T3, Protein cereblon/Bromodomain-containing protein 4 (Homo sapiens, UniProt O60885+Q96SW2); conditions: MV4-11, dose 0.1-1000 nM, time 4.0 hrs
T3 sequence (Q96SW2 whole entry, looked up, other chains not shown): as the sequence (Q96SW2 whole entry partner) above

[34] = biological target: T3, Protein cereblon/Bromodomain-containing protein 4; assay: PROTAC activity at CRBN/BRD4 in human MV4-11 cells assessed as degradation of BRD4 protein level incubated for 4 hrs by Western blotting assay; format: cell-based
[35] = biological target: T2, Protein cereblon/Bromodomain-containing protein 2; assay: In vivo protac activity at CRBN/BRD2 in human MV4-11 cells xenografted in SCID mouse assessed as degradation of BRD2 protein at 20 mg/kg,ip administrated and measured at 3 to 48 hrs by Western blotting analysis; format: functional, organism-based; conditions: time lower 3.0 hrs, time upper […]
[36] = tested on: MDA-MB-231; assay: Antitumor activity against human MDA-MB-231 cells xenografted in SCID mouse assessed as inhibition of tumor growth at 20 mg/kg,ip qd administrated 5 days per week for 4 weeks; format: functional; conditions: MDA-MB-231, 672 h, time 28 day
[37] = tested on: MV4-11; assay: Antitumor activity against human MV4-11 cells xenografted in SCID mouse assessed as inhibition of tumor growth at 20 mg/kg,ip qd administrated 5 days per week for 4 weeks; format: functional; conditions: MV4-11, 672 h, time 28 day
[38] = biological target: T1, Protein cereblon/Bromodomain-containing protein 3; assay: In vivo protac activity at CRBN/BRD3 in human MV4-11 cells xenografted in SCID mouse assessed as degradation of BRD3 protein at 20 mg/kg,ip administrated and measured at 3 to 48 hrs by Western blotting analysis; format: functional, organism-based; conditions: time lower 3.0 hrs, time upper […]

Row | Emax [2] | IC50 [6] | IC50 [7] | IC50 [9] | IC50 [10] | IC50 [12] | IC50 [15] | IC50 [25] | Emax [26] | IC50 [28] | Structure (SMILES) | Emax [3] | Emax [4] | Emax [5] | Emax [11] | Emax [13] | Emax [16] | Emax [17] | Emax [18] | Emax [19] | Emax [20] | other results
1 | 0% | 0.0033 µM | 0.0599 µM | 0.017 µM | 0.0049 µM | 0.0159 µM | 0.0378 µM | 0.025 µM | 0% | 0.0064 µM | Cc1nnc2n1-c1sc(C#Cc3cnn(C4CN(c5cccc6c5C(=O)N(C5CCC(=O)NC5=O)C6=O)C4)c3)c(Cc3ccccc3)c1COC2 (stereo unspecified) | 22% | 0% | < 10% | 27% | 10% | 0% | 18% | 34% | 6% | 5% | Emax [24]: 19%; Emax [27]: 18%; Emax [29]: 13%; Emax [30]: 0%
2 | 12% | – | – | – | – | – | – | – | 5% | – | Cc1nnc2n1-c1sc(C#Cc3cnn(C4CN(c5cccc6c5C(=O)N(C5CCC(=O)N(C)C5=O)C6=O)C4)c3)c(Cc3ccccc3)c1COC2 (stereo unspecified) | – | – | – | – | – | – | – | – | – | – | DC50 [31]: > 1 µM; DC50 [32]: > 1 µM; Emax [33]: 2%; DC50 [34]: > 1 µM
3 | 56% | – | – | – | – | – | – | – | 68% | – | Cc1nnc2n1-c1sc(C#Cc3cnn(C4CCN(c5cccc6c5C(=O)N(C5CCC(=O)NC5=O)C6=O)CC4)c3)c(Cc3ccccc3)c1COC2 (stereo unspecified) | – | – | – | – | – | – | – | – | – | – | –

The remaining lines, values behind:

Row | Structure (SMILES) | Emax [2] | IC50 [6] | IC50 [7] | IC50 [9] | IC50 [10] | IC50 [12] | IC50 [15] | IC50 [25] | Emax [26] | IC50 [28] | Emax [3] | Emax [4] | Emax [5] | Emax [11] | Emax [13] | Emax [16] | Emax [17] | Emax [18] | Emax [19] | Emax [20] | other results
4 | Cc1nnc2n1-c1sc(C#Cc3cnn(C4(CCN5CCN(C)CC5)CN(c5cccc6c5C(=O)N(C5CCC(=O)NC5=O)C6=O)C4)c3)c(Cc3ccccc3)c1COC2 (stereo unspecified) | 0% | 0.0038 µM | 0.0809 µM | 0.011 µM | 0.0051 µM | 0.0176 µM | 0.0384 µM | 0.069 µM | 0% | 0.0046 µM | 25% | 11% | 15% | 0% | 18% | 0% | 10% | 0% | 15% | 14% | Activity [1]: Non-Toxic; Activity [8]: Active; Activity [14]: Non-Toxic; Activity [21]: Non-Toxic; inhibition in vivo at 20 mg/kg [22]: 56%; Activity [23]: Non-Toxic; Emax [24]: 0%; Emax [27]: 0%; Emax [29]: 9%; Emax [30]: 6%
5 | Cc1nnc2n1-c1sc(C#Cc3cnn(C)c3)c(Cc3ccccc3)c1COC2 | 0% | 0.623 µM | 0.689 µM | 0.149 µM | 0.113 µM | 0.151 µM | 0.804 µM | 0.212 µM | 0% | 0.186 µM | – | – | – | – | – | – | – | – | – | – | Activity [35]: inactive; inhibition in vivo at 20 mg/kg [36]: 49%; inhibition in vivo at 20 mg/kg [37]: 63%; Activity [38]: inactive
